In one experiment the test system is Gli-1. Put plainly: Quantitative RT-PCR (TaqMan) measurement of Gli-1 transcript in C3H 10T1/2 cells. Particulars: compound concentration of 8 μM. The class given is cell-based, Murine. On the procedure: (§1) The compounds of FIGS. 32 and 33 were tested for their ability to activate transcription of two well-studied targets of the Hedgehog pathway: the transcription factor Gli-1, and the putative Hedgehog receptor component Ptc-1.
(§2) Murine C3H 10T1/2 cells were seeded at approximately 200,000 cells per well in a 24-well plate in complete medium (10% FBS). After 24 hr, medium was removed and replaced with “starvation” medium (0.5% FBS) containing dilutions of compound or Hh protein. After 16-18 hr, total RNA was prepared using TriZol (Life Technologies, inc.).
(§3) One microgram aliquots of total RNA were used to prepare random hexamer-primed cDNA with […] Reverse transcriptase (Life Technologies, Inc.).
(§4) To measure the relative levels of Gli-1 and Ptc-1 transcripts, TaqMan assays (PE Biosystems) were performed with an ABI Prism 7700 Sequence Detection System. As an internal control, GAPDH transcript levels were simultaneously measured in each reaction. Data were analyzed using Sequence Detector v1.6.3 (Perkin Elmer).

Another experiment deals with Ptc-1. As to the kind of experiment: Quantitative RT-PCR (TaqMan) measurement of Ptc-1 transcript in C3H 10T1/2 cells. The class given is cell-based, Murine. Particulars: compound concentration of 8 μM. On the procedure: as §1, §2, §3, §4
Experiment [1] deals with cerebellar neuron precursors. Put plainly: Cerebellar neuron precursor proliferation (3H-thymidine incorporation). It counts as cell-based, rat. Particulars: in the absence of Hh protein treatment. On the procedure:
In order to test the efficacy of Hedgehog signaling agonists, the ability of the agonists to stimulate the proliferation of cerebellar neuron precursors was determined. Cerebellar granule neuron precursors are known to respond to Hh protein by proliferating. To test the agonists, cerebellar neurons were dissected out of postnatal (one week) rat brains, and placed into primary cell culture. Treatment agents were added once, on the first day of culture (0 DIV). Cells were left in culture until 2 DIV, when 3H-thymidine was added for 5 hours; the amount of incorporation by the cells of this 3H-thymidine provides a measure of the level of proliferation of the cells. Cells were then lysed, and the incorporation of 3H-thymidine was determined. The positive control was Hh protein, at 1.0 μg/ml final concentration. Hh protein alone caused approximately a 20-fold increase in 3H-thymidine incorporation, consistent with the known ability of Shh to stimulate proliferation of these cells. Non-Hh-protein-stimulated cells, including cells treated with control vehicle (DMSO), had very low levels of proliferation. […] At 5.0 μM, the p-cyanophenyl compound B caused 10.2-fold induction of 3H-thymidine incorporation. […] At 1.0, 0.3, or 0.1 μM, D caused 16-, 17-, or 13-fold induction, respectively, of 3H thymidine incorporation into the cells.

Experiment [2] relates to patched (ptc-lacZ β-galactosidase reporter). Put plainly: Reporter mice assay (ptc-lacZ mice, X-gal staining of tissues). The class given is in vivo, mouse. The procedure:
Mice with a β-galactosidase transgene (ptc-lacZ mice) under the regulatory control of the patched locus expresss the β-galactosidase protein in the same cells where the endogenous mouse patched gene is expressed. The β-galactosidase protein can thus be used as a faithful reporter of the expression of the endogenous patched gene.
Ptc-lacZ mice were divided into four treatment groups and were treated with the following compounds or combinations of compounds for four days, beginning on the first day after birth (dipal-Shh=dipalmitoylated Sonic hedgehog):
The vehicle for the agonist was 10% DMSO in PBS (pH 7.2). The agonist was injected from a 4.67 mM stock dissolved in the vehicle solution.
18 hours following the last injections, the mice were sacrificed and the following tissues were collected: skull, kidney, lung, scapula, skin and heart. All tissues were fixed in 0.2% glutaraldehyde, 5 mM EDTA (pH 8.0), 20 mM MgCl2, 100 mM Na2HPO4 for 30 minutes before staining in 1 mg/ml X-gal, 12.5 mM potassium ferrocyanide, 12.5 mM potassium ferricyanide, 2 mM MgCl2, 0.01% deoxycholate, 0.02% NP-40, and 100 mM Na2HPO4 for 30 hours. Tissues were judged for relative intensity and photographed.
FIG. 42: Ptc-lacZ mice were divided into two treatment groups and were treated with the following compounds for three days, beginning on the first day after birth:
The vehicle for the agonist was 10% DMSO in PBS (pH 7.2). The agonist was injected from a 1.0 mM stock dissolved in the vehicle solution.
Eighteen hours following the last injections, the mice were sacrificed and the forelimbs were collected and processed as described above.
In a third experiment, Ptc-lacZ mice were divided into five treatment groups and were treated with the following compounds for four days, beginning on the first day after birth:
The vehicle for the agonist was 10% DMSO in PBS (pH 7.2). The agonist was injected from stocks of 0.3, 0.1 and 0.03 mM dissolved in the vehicle solution.
Eighteen hours following the last injections, the mice were sacrificed and the forelimbs were collected and processed as described above. Results of this experiment are depicted in FIG. 43, in which the vehicle control is not shown.

The test system of another experiment is ptc-1 (d11) lacZ lungs. As to the kind of experiment: Lung branching assay (ptc-1 lacZ lung explants). The class given is cell-based, mouse. The settings on record: 5 μM, 48 hrs culture. On the procedure: E 12.5 old ptc-1 (d11) lacZ lungs were harvested and transgenic embryos identified by lacZ detection using tails. Explants were assembled on 1 μm polycarbonate filters (Costar) placed on top of plastic grids (histology embedding chamber) and placed in standard 12-well tissue culture plates filled with lung explant culture medium (DMEM based, additives optimized for the culture of mouse lungs) for 48 hrs, fixed in lacZ fixative, rinsed and stained for lacZ O/N at 37° C.
Results are depicted in FIG. 44. In the control panel on the left, LacZ expression can be observed in the mesenchyme immediately adjacent to distal branching tips, a pattern reflective of endogenous patched expression.

The test system of experiment [3] is ptc-1 (d11) lacZ kidney explants. Put plainly: Kidney branching assay (ptc-1 lacZ kidney explants). The class given is cell-based, mouse. Particulars: 5 μM, 48 hrs culture. The procedure:
E13.5 old ptc-1 (d11) lacZ lungs were harvested and transgenic embryos identified by lacZ detection using tails. Explants were assembled on 1 μm polycarbonate filters (Costar) placed on top of plastic grids (histology embedding chamber) and placed in standard 12-well tissue culture plates filled with kidney explant culture medium (DMEM based, additives optimized for the culture of mouse lungs) for 48 hrs, fixed in lacZ fixative, rinsed and stained for lacZ O/N at 37° C.
Results are depicted in FIG. 45. In the control panel on the left, LacZ expression can be observed in the mesenchyme immediately adjacent to proximalmost ureteric epitheilium, a pattern reflective of endogenous patched expression.

The subject of experiment [4] is human embryonic palatal mesenchyme (HEPM) cells with a Gli-Luc construct. As to the kind of experiment: Gli-Luc reporter assay in human reporter cells. It counts as cell-based. An excerpt:
FIGS. 47A and B compare the activity of subject compounds O and R in mouse reporter cells (TM3 cells with a Gli-Luc reporter construct, as described above) and in human reporter cells (human embryonic palatal mesenchyme (HEPM) cells with a Gli-Luc construct).

A further experiment concerns ptc-lacZ skin punches. Put plainly: Skin explants from ptc-lacZ pups (X-Gal stain). The class given is cell-based, mouse. Particulars: agonist and a low dose of Hh protein, cultured 6 days. On the procedure:
Skin from ptc-lacZ E17.5 pups was excised with a 2 mm skin punch. Those skin punches were then cultured for 6 days in control media, or media including either agonist B or D or Hh protein, or media including both an agonist and Hh protein. The explants were then stained with X-Gal stain.

Entries after “also recorded” stand apart in the source; their conditions may differ.

For the molecule `COc1ccc(CN(C(=O)c2sc3ccccc3c2Cl)C2CCC(N)CC2)cc1-c1ccc(C#N)cc1` (centres unmarked) [B], the “induction of Gli-1 relative to that obtained with the optimal concentration of Hh protein” value with Gli-1 is given as “approximately 60%”. For the same molecule, the “induction of Ptc-1 relative to that obtained with the optimal concentration of Hh protein” value in the experiment with Ptc-1 was “approximately 60%”. The “stimulation of 3H-thymidine incorporation” value (shortened to “stimulation”) in experiment [1] is “significantly stimulate 3H-thymidine incorporation”. In addition, the “upregulation of β-galactosidase (hedgehog pathway) in tissues” value in experiment [2] (15 mg/kg/injection 4X/day plus dipal-Shh 1 mg/kg/injection 2X/day, four days from first day after birth, skull, kidney, lung, scapula, skin, heart) is “clearly capable of upregulating the hedgehog pathway in vivo”. For the same molecule, in the experiment on ptc-1 (d11) lacZ lungs, the “LacZ reporter gene expression in lung explants” value was “significantly increased reporter gene expression and expansion of the expression domain of the transgene”. In addition, the “LacZ reporter gene expression in kidney explants” value in experiment [3] was “significantly increased reporter gene expression and expansion of the expression domain of the transgene”.
For `COc1ccc(CN(C(=O)c2sc3ccccc3c2Cl)C2CCC(N)CC2)cc1-c1cccc([N+](=O)[O-])c1` (centres unmarked) [A], the “induction of Gli-1 relative to that obtained with the optimal concentration of Hh protein” value with Gli-1 is recorded as roughly 40%. The “induction of Ptc-1 relative to that obtained with the optimal concentration of Hh protein” value with Ptc-1 was roughly 40%. Besides, in experiment [1], the “stimulation” value is listed as “significantly stimulate 3H-thymidine incorporation”.
Turning to `CNC1CCC(N(Cc2ccc(-c3cccnc3)o2)C(=O)c2sc3ccccc3c2Cl)CC1` (centres unmarked) [R], in experiment [4], the “activation of Gli-Luc reporter in human cells” value is reported as “activation of the reporter cell line”.
For `CNC1CCC(N(Cc2ccc(OC)c(-c3ccc(C#N)cc3)c2)C(=O)c2sc3ccccc3c2Cl)CC1` (centres unmarked) [D], the “stimulation” value in experiment [1] is recorded as “strongly stimulated 3H-thymidine incorporation”. The “upregulation of hedgehog pathway (β-galactosidase) in forelimbs” value was “very weak upregulation” in experiment [2] (0.1 mg/kg/injection 4X/day, four days); “greater than that seen with injections of Hh protein” in experiment [2] (0.3 mg/kg/injection 4X/day, four days); “highest levels of upregulation; also recorded: greater than that seen with injections of Hh protein” in experiment [2] (0.9 mg/kg/injection 4X/day, four days, listed as agonist D); “clearly capable of upregulating the hedgehog pathway in vivo” in experiment [2] (4 mg/kg/injection 4X/day, three days, absence of dipal-Shh, listed as Agonist D); “greater than that seen with injections of dipal-Shh” in experiment [2] (4 mg/kg/injection 4X/day, three days, absence of dipal-Shh, listed as agonist D). In addition, the “X-Gal staining of skin explants” value in the experiment on ptc-lacZ skin punches was “Analogous results”.

The values above are taken from patent US6613798B1, “Small organic molecule regulators of cell proliferation” (Curis, Inc., priority 2000, dated 2003).
